Series [1] in a line: IAM chromatography (IAM-HPLC), IAM.PC.DD2 column. The series is classed as physicochemical. To be noted: for logkIAM: logkIAM = 0.045 CHIIAM + 0.42; for logkIAM / CHI (CHIIAM), Table S2: pH 7.4; for CHIIAM: pH 7.4, 30 °C, acetonitrile gradient; for CHI (CHIIAM), Table S2: IAM chromatography, from mean of three retention times. The source says:
(§1) For this reason, the next step of our study concerns the characterization of investigated sulfonamide derivatives using a chromatographic approach. Generally, in RP-HPLC, the interactions between solutes and the stationary phase surface are mainly governed by lipophilicity. Consequently, RP-HPLC is the primary tool for assessing the lipophilicity of xenobiotics. […] Generally, the chemical character of target solutes determines interactions between the molecule and the stationary phase that may occur. Considering the large variety of RP-HPLC beds and differences in specific surface area, the energy of the sorbent’s intermolecular interactions between solutes and chemical structures, four different reversed-phase stationary phases and IAM column were investigated during this study. The lipophilicity index was presented as a logkw value, so the retention factor was extrapolated to the pure water after calculation using a protocol based on two gradient measurements and DryLab software.
(§2) Since the biomimetic chromatography experiments are carried out at physiological pH to compare obtained results, all chromatographic experiments have been carried out at pH 7.4. […] Consequently, the chromatography lipophilicity indices refer to the distribution coefficient (logD) values, which better reflect the lipophilicity of ionized substances under physiological conditions.
(§3) All HPLC experiments were carried out using a Prominence-1 LC-2030C 3D HPLC system (Shimadzu, Japan) equipped with a DAD detector and controlled by the LabSolution system (version 5.90 Shimadzu, Japan). The stock solutions of solutes were diluted to obtain 100 μg/mL concentrations, and the injected volume was 10 μL. During this study, six different columns in terms of chemical modification of stationary phases were used. Retention times (tR) of investigated sulfonamides were collected, and their detection in all systems was performed at the wavelength characteristic for each compound, summarized in Table S1. For all chromatography systems, analysis was carried out at 40 °C, except for IAM chromatography, in which oven temperature was set to 30 °C. The CHIIAM and CHI18 indices of the target sulfonamides derivatives were obtained using the protocol proposed by Valko and co-workers. C18 chromatography was performed on a Waters-C18 column (150 mm × 3.9 mm; 5.0 µm; Symmetry; USA), with a 1.5 mL/min flow rate. The mobile phase was ammonium acetate buffer (50 mM) at pH 7.4 and acetonitrile as an organic modifier. The linear gradient from 2 to 98% ACN was applied from 0 to 30 min. IAM chromatography was executed on an IAM.PC.DD2 column ([…] × 4.6 mm; 10.0 µm; Regis Technologies, Morton Grove, IL, USA) additionally equipped with an IAM guard column with the same flow rate of 1.5 mL/min. The mobile phase was sodium phosphate buffer (10 mM) at pH 7.4 and acetonitrile as the organic phase. The linear gradient from 0 to 85% was applied within 5.25 min.

Series [2] in a line: C18 chromatography (RP-HPLC), chromatographic hydrophobicity index. The series is classed as physicochemical. The following applies: for chromatographic logD: Waters Symmetry C18 column, CHI log D = 0.0525 CHIC18 − 1.467, pH 7.4; for CHIC18: pH 7.4, 40 °C, acetonitrile gradient.
Text: as §1, §2, §3

Series [3] is described as follows: C8 chromatography (RP-HPLC), logkw from two gradients with DryLab. The series is classed as physicochemical. To be noted: for logkw, Table S4: C8 chromatography, pH 7.4, short and long gradient; for logkwC8: pH 7.4, 40 °C, retention factor extrapolated to 0% organic modifier.
Text: as §1, §2
(§4) For C8, cyanopropyl, and phenyl chromatography, according to the assumption proposed by Snyder and co-workers, appropriate logkw values (i.e., the retention factor logk extrapolated to 0% organic modifier, as an alternative to logP) were obtained. […] Dwell volume for these HPLC systems was measured at 0.780 mL, whereas the obtained dead times for used HPLC columns were equal to 1.530 min, 1.252 min, and 2.335 min for C8, SB-CN, and UK-Phenyl, respectively. The mobile phase was ammonium acetate buffer (50 mM) at pH 7.4 and acetonitrile as an organic modifier in each system. C8 chromatography was performed on Unison UK-C8 column (150 × 2 mm; 3.0 µm. Imtakt; USA) with 0.3 mL/min flow rate. Analyses were carried out in linear gradient from 30 to 100% within 15 min in short gradient and 30 min in long gradient. The Agilent SB-CN column (150 × 4.6 mm; 3.5 µm; Zorbax; USA) was used for the cyanopropyl chromatography. The CN chromatography analyses were carried out in linear gradient from 20 to 100%, which was applied from 0 to 20 min in short gradient, and from 0 to 40 min in long gradient. The flow rate was 1.5 mL/min. The column Unison UK-Phenyl (150 × 2 mm; 3.0 µm; Imtakt; USA) was used to perform phenyl chromatography. The flow rate was set to 0.2 mL/min. The phenyl analyses were carried out in linear gradient from 40 to 100%, which was applied from 0 to 20 min in short gradient, and from 0 to 40 min in long gradient. Each HPLC analysis was run in triplicate; in Tables S2–S6, obtained retention times are listed, whereas representative chromatograms are shown in Figure 9.

Series [4] in a line: Cyanopropyl (CN) chromatography, logkw from two gradients with DryLab. The series is classed as physicochemical. To be noted: for logkw, Table S5: Cyanopropyl chromatography, pH 7.4, short and long gradient; for logkwCN: pH 7.4, 40 °C, retention factor extrapolated to 0% organic modifier.
Text: as §1, §2, §4

A short description of series [5]: Phenyl (Ph) chromatography, logkw from two gradients with DryLab. The series is classed as physicochemical. The following applies: for logkw, Table S6: Phenyl chromatography, pH 7.4, short and long gradient; for logkwPh: pH 7.4, 40 °C, retention factor extrapolated to 0% organic modifier.
Text: as §1, §2, §4

Series [6] has as its system human colon cancer (HCT-116). More on the design: method as in PMID 29772699, PMID 28122174, PMID 27338337, PMID 26506328. The following applies: HCT-116 cell line; cited from earlier work.

With `Cc1cc(S(=O)(=O)Nc2nnc(Cc3ccccc3[N+](=O)[O-])c(=O)[nH]2)c(SCc2cc3c(cc2Cl)OCO3)cc1Cl` [Compound 12], in series [1], the logkIAM was found to be 2.00 and the CHIIAM is recorded as 35.20. For the same compound, in series [2], the chromatographic logD turned out to be 2.7 and the CHIC18 is given as 79.30. Besides, in series [3], the “logkw, Table S4” value worked out at 4.070 and the logkwC8 was 4.07. In series [4], the “logkw, Table S5” value came to 2.162 and the logkwCN is listed as 2.16. Further, in series [5], the “logkw, Table S6” value worked out at 3.897 and the logkwPh is 3.90. Moreover, in series [6], the pIC50 is reported as 4.06.
`COc1ccc(-c2cnnc(NS(=O)(=O)c3cc(C)c(Cl)cc3SCc3ccc(C(F)(F)F)cc3)n2)cc1` [Compound 25]: in series [1], the “CHI (CHIIAM), Table S2” value is 37.2 and the logkIAM was 2.09. In series [2], this compound showed a chromatographic logD of 2.96 and a CHIC18 of 84.40. Moreover, in series [3], the “logkw, Table S4” value is reported as 4.260 and the logkwC8 was 4.26. Further, in series [4], the “logkw, Table S5” value is listed as 2.330 and the logkwCN is reported as 2.33. In series [5], the “logkw, Table S6” value is given as 3.886 and the logkwPh was 3.89. Besides, the pIC50 in series [6] is 4.17.
For `COc1ccc(-c2cnnc(NS(=O)(=O)c3cc(C(=O)Nc4ccc(Cl)cc4)c(Cl)cc3SCc3ccccc3)n2)cc1` [Compound 16], in series [1], the logkIAM is 2.21 and the CHIIAM came to 39.80. In series [2], this compound came in with a chromatographic logD of 3.04 and a CHIC18 of 85.90. Moreover, in series [3], the “logkw, Table S4” value was found to be 4.380 and the logkwC8 is 4.38. Moreover, in series [4], the “logkw, Table S5” value stood at 2.471 and the logkwCN was 2.47. Besides, in series [5], the “logkw, Table S6” value is reported as 4.476 and the logkwPh is recorded as 4.48. Moreover, the pIC50 in series [6] is 4.12.
On to `Cc1cc(S(=O)(=O)Nc2nncc(-c3cccc(F)c3)n2)c(SCc2ccccc2)cc1Cl` [Compound 13], for which, in series [1], the “CHI (CHIIAM), Table S2” value stood at 37.1 and the logkIAM is reported as 2.09. In series [2], this compound gave a chromatographic logD of 2.62 and a CHIC18 of 77.90. For the same compound, in series [3], the “logkw, Table S4” value worked out at 4.030 and the logkwC8 is recorded as 4.03. For the same compound, in series [4], the “logkw, Table S5” value is 2.037 and the logkwCN is 2.04. In series [5], the “logkw, Table S6” value came to 3.532 and the logkwPh is 3.53. Besides, the pIC50 in series [6] is listed as 4.12.
For `Cc1ccc(NC(=O)c2cc(S(=O)(=O)Nc3nncc(-c4ccc(C(F)(F)F)cc4)n3)c(SCc3ccccc3)cc2Cl)cc1` [Compound 17], in series [1], the logkIAM amounted to 2.28 and the CHIIAM turned out to be 41.40. In series [2], this compound returned a chromatographic logD of 3.25 and a CHIC18 of 89.90. In addition, in series [3], the “logkw, Table S4” value was 4.490 and the logkwC8 was 4.49. In addition, in series [4], the “logkw, Table S5” value worked out at 2.544 and the logkwCN is listed as 2.54. Also, in series [5], the “logkw, Table S6” value came to 4.540 and the logkwPh is reported as 4.54. In addition, the pIC50 in series [6] is 4.15.
Take `O=S(=O)(Nc1cccc2nsnc12)c1ccc(-n2cccc2)cc1` [Compound 5]: in series [1], the “CHI (CHIIAM), Table S2” value was found to be 31.4 and the logkIAM is 1.83. In series [2], this compound had a chromatographic logD of 2.89 and a CHIC18 of 82.90. Further, in series [3], the “logkw, Table S4” value is reported as 4.055 and the logkwC8 is on record as 4.06. Further, in series [4], the “logkw, Table S5” value was 2.300 and the logkwCN is 2.30. Besides, in series [5], the “logkw, Table S6” value came out at 4.079 and the logkwPh is on record as 4.08. Further, the pIC50 in series [6] is recorded as 4.64.
As to `Cc1cc(S(=O)(=O)Nc2nnc(-c3ccccc3)c(=O)[nH]2)c(SCc2ccc(C(F)(F)F)cc2)cc1Cl` [Compound 8], in series [1], the “CHI (CHIIAM), Table S2” value amounted to 36.7 and the logkIAM is on record as 2.07. Further, in series [2], the chromatographic logD came out at 2.88 and the CHIC18 was determined as 82.80. Moreover, in series [3], the “logkw, Table S4” value stood at 4.206 and the logkwC8 was 4.21. In series [4], the “logkw, Table S5” value was 2.010 and the logkwCN is recorded as 2.01. For the same compound, in series [5], the “logkw, Table S6” value came to 4.490 and the logkwPh is reported as 4.49. In series [6], the pIC50 was 4.10.
For `O=S(=O)(Nc1ccc(Cl)cc1)c1ccc(-n2cccc2)cc1` [Compound 6], in series [1], the “CHI (CHIIAM), Table S2” value came to 45.4 and the logkIAM was 2.46. In series [2], the chromatographic logD worked out at 3.5 and the CHIC18 is 94.70. Also, in series [3], the “logkw, Table S4” value stood at 4.609 and the logkwC8 is 4.61. For the same compound, in series [4], the “logkw, Table S5” value was 2.892 and the logkwCN is listed as 2.89. Further, in series [5], the “logkw, Table S6” value was found to be 5.391 and the logkwPh was 5.39. Also, the pIC50 in series [6] was 4.15.
On to `COc1cc(-c2cnnc(NS(=O)(=O)c3cc(C(=O)Nc4ccc(C)cc4)c(Cl)cc3SCc3ccccc3)n2)cc(OC)c1OC` [Compound 19], for which, in series [1], the logkIAM is given as 1.93 and the CHIIAM is 33.60. In series [2], this compound gave a chromatographic logD of 2.72 and a CHIC18 of 79.70. Also, in series [3], the “logkw, Table S4” value is on record as 4.068 and the logkwC8 is listed as 4.07. Moreover, in series [4], the “logkw, Table S5” value was found to be 2.216 and the logkwCN was 2.22. Further, in series [5], the “logkw, Table S6” value stood at 3.967 and the logkwPh was 3.97. In series [6], the pIC50 is reported as 4.12.
`Cc1cc(S(=O)(=O)Nc2nncc(-c3cccc(F)c3)n2)c(SCc2cccc3ccccc23)cc1Cl` [Compound 22]: in series [1], the “CHI (CHIIAM), Table S2” value was 42.2 and the logkIAM was 2.32. Further, in series [2], the chromatographic logD stood at 2.97 and the CHIC18 was determined as 84.60. Moreover, in series [3], the “logkw, Table S4” value is given as 4.276 and the logkwC8 was 4.28. Besides, in series [4], the “logkw, Table S5” value came out at 2.356 and the logkwCN is 2.36. Also, in series [5], the “logkw, Table S6” value is recorded as 4.254 and the logkwPh is 4.25. In addition, in series [6], the pIC50 was 4.31.
`Cc1cc(C)nc(NS(=O)(=O)c2ccc(-n3cccc3)cc2)n1` [Compound 7]: in series [1], the “CHI (CHIIAM), Table S2” value was found to be 24.3 and the logkIAM worked out at 1.51. Further, in series [2], the chromatographic logD came out at 1.88 and the CHIC18 is listed as 63.80. Besides, in series [3], the “logkw, Table S4” value stood at 3.300 and the logkwC8 was 3.30. Moreover, in series [4], the “logkw, Table S5” value stood at 1.780 and the logkwCN is on record as 1.78. Moreover, in series [5], the “logkw, Table S6” value came to 2.810 and the logkwPh is given as 2.81. Further, the pIC50 in series [6] is given as 4.16.

As usually defined, the chromatographic logD is a lipophilicity value derived from retention on a column. High values mean a more lipophilic compound, low ones a more hydrophilic compound. The term pIC50 denotes −log10 of the IC50, conventionally taken in molar units.

(Values after publication PMC9268166, “Modeling of Anticancer Sulfonamide Derivatives Lipophilicity by Chemometric and Quantitative Structure-Retention Relationships Approaches” (Molecules, 2022).)
